This note sets out measurements from ChEMBL document CHEMBL1765032, “β-Branched acyclic nucleoside analogues as inhibitors of Plasmodium falciparum dUTPase” (Bioorg Med Chem, 2011).

Structures are written as SMILES.

One data set relates to L6. As to the kind of experiment: Cytotoxicity against rat L6 cells after 72 hrs by alamar blue assay. The format is cell-based. The conditions noted are these: L6, 72 h. Background: Alamar Blue is a resazurin reagent that responds to reducing activity.
For another data set, the system named is Plasmodium falciparum. The data set can be described thus: microbe, parasite or virus in culture. The conditions noted are these: K1.
A short description of data set [1]: Inhibition of Plasmodium falciparum dUTPase by spectrophotometric analysis.
In data set [2] the target is T1, Deoxyuridine 5'-triphosphate nucleotidohydrolase, mitochondrial (Homo sapiens, UniProt P33316).
T1 sequence (P33316 whole entry): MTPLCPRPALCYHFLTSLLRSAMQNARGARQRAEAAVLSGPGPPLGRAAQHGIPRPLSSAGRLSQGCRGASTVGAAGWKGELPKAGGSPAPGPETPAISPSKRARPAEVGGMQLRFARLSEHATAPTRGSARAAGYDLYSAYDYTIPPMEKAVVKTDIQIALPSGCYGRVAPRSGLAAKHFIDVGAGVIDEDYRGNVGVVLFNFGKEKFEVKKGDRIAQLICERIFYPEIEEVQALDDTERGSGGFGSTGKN
The data set can be described thus: Inhibition of human dUTPase by spectrophotometric analysis.

Data set [3] can be described thus: Selectivity index, ratio of EC50 for rat L6 cells to EC50 for chloroquine-resistant erythrocytic stage of Plasmodium falciparum K1. The format is toxicity, cell-based. As to conditions: read-out: Ratio EC50.

For orientation: EC50 means the concentration giving half of the maximal effect. Low readings indicate an effect from little substance, high ones a need for much substance. A word on the Ki: it is the equilibrium dissociation constant of an inhibitor or competing ligand from its target. Read a low Ki as higher affinity.

In the case of `O=c1ccn(CCCCOC(c2ccccc2)(c2ccccc2)c2ccccc2)c(=O)[nH]1`, the EC50 worked out at 42 µM with L6 and 4.9 µM in the data set on Plasmodium falciparum.
For the compound `O=c1ccn([C@H]2C[C@H](O)[C@@H](CNC(c3ccccc3)(c3ccccc3)c3ccccc3)O2)c(=O)[nH]1`, the EC50 stood at 44 µM in the data set with L6 and 4.5 µM in the data set on Plasmodium falciparum.
The corresponding values for `O=c1ccn([C@H]2C[C@H](O)[C@@H](COC(c3ccccc3)(c3ccccc3)c3ccccc3)O2)c(=O)[nH]1` are 192 µM and 6 µM.
With `NC(=O)C(CCOC(c1ccccc1)(c1ccccc1)c1ccccc1)Cn1ccc(=O)[nH]c1=O` (racemic), the Ki in data set [1] is 1.3 µM; in data set [2], greater than 100 µM.
The corresponding values for `CN(C)C(=O)C(CCOC(c1ccccc1)(c1ccccc1)c1ccccc1)Cn1ccc(=O)[nH]c1=O` (racemic) are 2.7 µM and greater than 100 µM.
The corresponding values for `CC(C)(C)[Si](OCCNC(=O)C(CCOC(c1ccccc1)(c1ccccc1)c1ccccc1)Cn1ccc(=O)[nH]c1=O)(c1ccccc1)c1ccccc1` (racemic) are greater than 10 µM and greater than 100 µM.
On to `CCOC(=O)CCNC(=O)C(CCOC(c1ccccc1)(c1ccccc1)c1ccccc1)Cn1ccc(=O)[nH]c1=O` (racemic), for which the results for the Ki in data set [1] and in data set [2] were 0.5 µM and greater than 100 µM, respectively.
On to `CN(C)CCNC(=O)C(CCOC(c1ccccc1)(c1ccccc1)c1ccccc1)Cn1ccc(=O)[nH]c1=O` (racemic), for which the Ki in data set [1] was 7.8 µM; in data set [2], greater than 100 µM.
Taken in the same sequence, the figures for `O=C(C(CCOC(c1ccccc1)(c1ccccc1)c1ccccc1)Cn1ccc(=O)[nH]c1=O)N1CCOCC1` (racemic) were 2.1 µM and greater than 100 µM.
Taken in the same sequence, the figures for `COCCNC(=O)C(CCOC(c1ccccc1)(c1ccccc1)c1ccccc1)Cn1ccc(=O)[nH]c1=O` (racemic) were 1.4 µM and greater than 100 µM.
The corresponding values for `CN1CCN(C(=O)C(CCOC(c2ccccc2)(c2ccccc2)c2ccccc2)Cn2ccc(=O)[nH]c2=O)CC1` (racemic) are 5.6 µM and greater than 100 µM.
In turn, `O=C(NCCO)C(CCOC(c1ccccc1)(c1ccccc1)c1ccccc1)Cn1ccc(=O)[nH]c1=O` (racemic) returned a Ki in data set [2] greater than 100 µM.
With `O=C(O)CCNC(=O)C(CCOC(c1ccccc1)(c1ccccc1)c1ccccc1)Cn1ccc(=O)[nH]c1=O` (racemic), the Ki in data set [1] is 0.2 µM; in data set [2], greater than 100 µM.
In the case of `CC(C)(C)[Si](OCCC(Cn1ccc(=O)[nH]c1=O)C(=O)O)(c1ccccc1)c1ccccc1` (racemic), the Ki in data set [1] is 1.6 µM; in data set [2] it was greater than 100 µM.
The corresponding values for `CC(C)(C)[Si](OCCC(Cn1ccc(=O)[nH]c1=O)C(N)=O)(c1ccccc1)c1ccccc1` (racemic) are 5 µM and greater than 100 µM.
The corresponding values for `CNC(=O)C(CCO[Si](c1ccccc1)(c1ccccc1)C(C)(C)C)Cn1ccc(=O)[nH]c1=O` (racemic) are 3.6 µM and greater than 100 µM.
Taken in the same sequence, the figures for `CCNC(=O)C(CCO[Si](c1ccccc1)(c1ccccc1)C(C)(C)C)Cn1ccc(=O)[nH]c1=O` (racemic) were 5.7 µM and greater than 100 µM.
On to `CCN(CC)C(=O)C(CCO[Si](c1ccccc1)(c1ccccc1)C(C)(C)C)Cn1ccc(=O)[nH]c1=O` (racemic), for which the inhibition constant (Ki) in data set [1] is 20 µM; in data set [2], greater than 100 µM.
On to `CC(C)(C)[Si](OCCC(Cn1ccc(=O)[nH]c1=O)C(=O)N1CCN(C(=O)OCc2ccccc2)CC1)(c1ccccc1)c1ccccc1` (racemic), for which the figures for the Ki in data set [1] and in data set [2] were 98 µM and greater than 100 µM, respectively.
In the case of `O=C(OCc1ccccc1)OCC(CCNC(c1ccccc1)(c1ccccc1)c1ccccc1)Cn1ccc(=O)[nH]c1=O` (racemic), the Ki is 6.5 µM in data set [1] and greater than 100 µM in data set [2].
Turning to `O=C(O)C(CCNC(c1ccccc1)(c1ccccc1)c1ccccc1)Cn1ccc(=O)[nH]c1=O` (racemic), the Ki stood at 7.2 µM in data set [1] and 90 µM in data set [2]. Further, the EC50 was 51 µM in the data set with L6 and 1.3 µM in the data set on Plasmodium falciparum. Also, in data set [3], the selectivity ratio came out at 39.
As to `NC(=O)C(CCNC(c1ccccc1)(c1ccccc1)c1ccccc1)Cn1ccc(=O)[nH]c1=O` (racemic), the Ki in data set [1] stood at 5.5 µM; in data set [2], 98 µM. In addition, the values for the EC50 with L6 and in the data set with Plasmodium falciparum were 177 µM and 1.1 µM, respectively. Further, in data set [3], the selectivity ratio was determined as 161.
Turning to `O=c1ccn(CC(CO)CCOC(c2ccccc2)(c2ccccc2)c2ccccc2)c(=O)[nH]1` (racemic), the EC50 with L6 was found to be 33 µM; in the data set on Plasmodium falciparum, 1.2 µM.
`COc1cc([C@@H]2c3cc4c(cc3[C@H](O)[C@H]3COC(=O)[C@H]23)OCO4)cc(OC)c1OC` [PODOFILOX] came in with a half-maximal effective concentration (EC50) with Plasmodium falciparum of 0.012 µM.
